Assay results: patent US20230085307A1, “PYRIDAZINONE COMPOUND AND HERBICIDE” (NISSAN CHEMICAL CORPORATION, priority 2019, published 2023)

Tests used:
barnyard grass [1] = experiment: Test Example 3: herbicidal effect by foliage application, Wagner pot (Table 18, symbol H); assay type: in vivo, barnyard grass (Echinochloa crus-galli); conditions: amount of applied herbicide 147 g/ha
Method in brief: (§1)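 Plants were sown in alluvial soil held under 0.1–0.5 cm standing water and grown 14 days in a greenhouse at 25–30 °C. An emulsifiable formulation, water-diluted to the set dose, was then sprayed onto the foliage, and effects were scored three weeks later using previously defined criteria.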

Chinese sprangletop = experiment: Test Example 3: herbicidal effect by foliage application, Wagner pot (Table 18, symbol D); assay type: in vivo, chinese sprangletop (Leptochloa chinensis); conditions: amount of applied herbicide 147 g/ha
Method in brief: as §1

rice flat sedge = experiment: Test Example 3: herbicidal effect by foliage application, Wagner pot (Table 18, symbol E); assay type: in vivo, rice flat sedge (Cyperus iria); conditions: amount of applied herbicide 147 g/ha
Method in brief: as §1

southern crabgrass [2] = experiment: Test Example 4: herbicidal effect by soil treatment (Table 19, symbol F); assay type: in vivo, southern crabgrass (Digitaria ciliaris); conditions: amount of applied herbicide 147 g/ha
Method in brief: (§2)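 Applied as a water-diluted emulsion, the compound was sprayed onto soil covering newly sown seeds. Evaluation came three weeks after application, in a greenhouse held at 25° C. to 30° C.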

green foxtail [3] = experiment: Test Example 4: herbicidal effect by soil treatment (Table 19, symbol G); assay type: in vivo, green foxtail (Setaria viridis); conditions: amount of applied herbicide 147 g/ha
Method in brief: as §2

barnyard grass [4] = experiment: Test Example 4: herbicidal effect by soil treatment (Table 19, symbol H); assay type: in vivo, barnyard grass (Echinochloa crus-galli); conditions: amount of applied herbicide 147 g/ha
Method in brief: as §2

wild oat [5] = experiment: Test Example 4: herbicidal effect by soil treatment (Table 19, symbol I); assay type: in vivo, wild oat (Avena fatua); conditions: amount of applied herbicide 147 g/ha
Method in brief: as §2

blackgrass [6] = experiment: Test Example 4: herbicidal effect by soil treatment (Table 19, symbol J); assay type: in vivo, blackgrass (Alopecurus myosuroides); conditions: amount of applied herbicide 147 g/ha
Method in brief: as §2

Italian ryegrass [7] = experiment: Test Example 4: herbicidal effect by soil treatment (Table 19, symbol K); assay type: in vivo, Italian ryegrass (Lolium multiflorum); conditions: amount of applied herbicide 147 g/ha
Method in brief: as §2

windgrass [8] = experiment: Test Example 4: herbicidal effect by soil treatment (Table 19, symbol L); assay type: in vivo, windgrass (Apera spica-venti); conditions: amount of applied herbicide 147 g/ha
Method in brief: as §2

velvetleaf [9] = experiment: Test Example 4: herbicidal effect by soil treatment (Table 19, symbol M); assay type: in vivo, velvetleaf (Abutilon theophrasti); conditions: amount of applied herbicide 147 g/ha
Method in brief: as §2

redroot pigweed = experiment: Test Example 4: herbicidal effect by soil treatment (Table 19, symbol N); assay type: in vivo, redroot pigweed (Amaranthus retroflexus); conditions: amount of applied herbicide 147 g/ha
Method in brief: as §2

lambsquarters [10] = experiment: Test Example 4: herbicidal effect by soil treatment (Table 19, symbol O); assay type: in vivo, lambsquarters (Chenopodium album); conditions: amount of applied herbicide 147 g/ha
Method in brief: as §2

chickweed = experiment: Test Example 4: herbicidal effect by soil treatment (Table 19, symbol P); assay type: in vivo, common chickweed (Stellaria media); conditions: amount of applied herbicide 147 g/ha
Method in brief: as §2

persian speedwell [11] = experiment: Test Example 4: herbicidal effect by soil treatment (Table 19, symbol R); assay type: in vivo, Persian speedwell (Veronica persica); conditions: amount of applied herbicide 147 g/ha
Method in brief: as §2

southern crabgrass [12] = experiment: Test Example 5: herbicidal effect by foliage application, plastic box (Table 20, symbol F); assay type: in vivo, southern crabgrass (Digitaria ciliaris); conditions: foliage application, 147 g/ha, three weeks after application
Method in brief: (§3)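 Sow seeds spot-wise in sterilized diluvial soil; cover with ~1.5 cm soil. Grow 14 days in greenhouse, 25° C. to 30° C. Spray foliage with emulsion diluted to predetermined amount. Rate effect after 3 weeks.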

green foxtail [13] = experiment: Test Example 5: herbicidal effect by foliage application, plastic box (Table 20, symbol G); assay type: in vivo, green foxtail (Setaria viridis); conditions: foliage application, 147 g/ha, three weeks after application
Method in brief: as §3

barnyard grass [14] = experiment: Test Example 5: herbicidal effect by foliage application, plastic box (Table 20, symbol H); assay type: in vivo, barnyard grass (Echinochloa crus-galli); conditions: foliage application, 147 g/ha, three weeks after application
Method in brief: as §3

wild oat [15] = experiment: Test Example 5: herbicidal effect by foliage application, plastic box (Table 20, symbol I); assay type: in vivo, wild oat (Avena fatua); conditions: foliage application, 147 g/ha, three weeks after application
Method in brief: as §3

blackgrass [16] = experiment: Test Example 5: herbicidal effect by foliage application, plastic box (Table 20, symbol J); assay type: in vivo, blackgrass (Alopecurus myosuroides); conditions: foliage application, 147 g/ha, three weeks after application
Method in brief: as §3

Italian ryegrass [17] = experiment: Test Example 5: herbicidal effect by foliage application, plastic box (Table 20, symbol K); assay type: in vivo, Italian ryegrass (Lolium multiflorum); conditions: foliage application, 147 g/ha, three weeks after application
Method in brief: as §3

windgrass [18] = experiment: Test Example 5: herbicidal effect by foliage application, plastic box (Table 20, symbol L); assay type: in vivo, windgrass (Apera spica-venti); conditions: foliage application, 147 g/ha, three weeks after application
Method in brief: as §3

velvetleaf [19] = experiment: Test Example 5: herbicidal effect by foliage application, plastic box (Table 20, symbol M); assay type: in vivo, velvetleaf (Abutilon theophrasti); conditions: foliage application, 147 g/ha, three weeks after application
Method in brief: as §3

lambsquarters [20] = experiment: Test Example 5: herbicidal effect by foliage application, plastic box (Table 20, symbol O); assay type: in vivo, lambsquarters (Chenopodium album); conditions: foliage application, 147 g/ha, three weeks after application
Method in brief: as §3

false cleavers = experiment: Test Example 5: herbicidal effect by foliage application, plastic box (Table 20, symbol Q); assay type: in vivo, false cleavers (Galium spurium); conditions: foliage application, 147 g/ha, three weeks after application
Method in brief: as §3

persian speedwell [21] = experiment: Test Example 5: herbicidal effect by foliage application, plastic box (Table 20, symbol R); assay type: in vivo, Persian speedwell (Veronica persica); conditions: foliage application, 147 g/ha, three weeks after application
Method in brief: as §3

SMILES: COc1ccccc1-c1oc2ccc(C)cc2c1-c1c(O)c(C)nn(C)c1=O [9-006]
- Herbicidal effect on H (barnyard grass), foliage application (barnyard grass [1]): 1 (Herbicidal rate of 5% or more and less than 20%)
- Herbicidal effect on D (Chinese sprangletop), foliage application (Chinese sprangletop): 0 (Herbicidal rate of 5% or less (almost no effect))
- Herbicidal effect on E (rice flat sedge), foliage application (rice flat sedge): 2 (Herbicidal rate of 20% or more and less than 40%)
- F: southern crabgrass, herbicidal effect grade (southern crabgrass [2]): 0 (Herbicidal rate of 5% or less (almost no effect))
- G: green foxtail, herbicidal effect grade (green foxtail [3]): 0 (Herbicidal rate of 5% or less (almost no effect))
- H: barnyard grass, herbicidal effect grade (barnyard grass [4]): 0 (Herbicidal rate of 5% or less (almost no effect))
- I: wild oat, herbicidal effect grade (wild oat [5]): 0 (Herbicidal rate of 5% or less (almost no effect))
- J: blackgrass, herbicidal effect grade (blackgrass [6]): 0 (Herbicidal rate of 5% or less (almost no effect))
- K: Italian ryegrass, herbicidal effect grade (Italian ryegrass [7]): 0 (Herbicidal rate of 5% or less (almost no effect))
- L: windgrass, herbicidal effect grade (windgrass [8]): 0 (Herbicidal rate of 5% or less (almost no effect))
- M: velvetleaf, herbicidal effect grade (velvetleaf [9]): 0 (Herbicidal rate of 5% or less (almost no effect))
- N: redroot pigweed, herbicidal effect grade (redroot pigweed): 3 (Herbicidal rate of 40% or more and less than 70%)
- O: lambsquarters, herbicidal effect grade (lambsquarters [10]): 0 (Herbicidal rate of 5% or less (almost no effect))
- P: chickweed, herbicidal effect grade (chickweed): 0 (Herbicidal rate of 5% or less (almost no effect))
- R: persian speedwell, herbicidal effect grade (persian speedwell [11]): 0 (Herbicidal rate of 5% or less (almost no effect))
- herbicidal effect on southern crabgrass (F) (southern crabgrass [12]): 0 (Herbicidal rate of 5% or less (almost no effect))
- herbicidal effect on green foxtail (G) (green foxtail [13]): 0 (Herbicidal rate of 5% or less (almost no effect))
- herbicidal effect on barnyard grass (H) (barnyard grass [14]): 0 (Herbicidal rate of 5% or less (almost no effect))
- herbicidal effect on wild oat (I) (wild oat [15]): 0 (Herbicidal rate of 5% or less (almost no effect))
- herbicidal effect on blackgrass (J) (blackgrass [16]): 0 (Herbicidal rate of 5% or less (almost no effect))
- herbicidal effect on Italian ryegrass (K) (Italian ryegrass [17]): 0 (Herbicidal rate of 5% or less (almost no effect))
- herbicidal effect on windgrass (L) (windgrass [18]): 0 (Herbicidal rate of 5% or less (almost no effect))
- herbicidal effect on velvetleaf (M) (velvetleaf [19]): 2 (Herbicidal rate of 20% or more and less than 40%)
- herbicidal effect on lambsquarters (O) (lambsquarters [20]): 0 (Herbicidal rate of 5% or less (almost no effect))
- herbicidal effect on false cleavers (Q) (false cleavers): 3 (Herbicidal rate of 40% or more and less than 70%)
- herbicidal effect on persian speedwell (R) (persian speedwell [21]): 0 (Herbicidal rate of 5% or less (almost no effect))
